Data as given in patent publication US10695396B2, “Malignant tumor target peptide” (NATIONAL INSTITUTE OF ADVANCED INDUSTRIAL SCIENCE AND …, priority 2016, dated 2020).
Like-named read-outs stand apart in the source and are kept apart here. Square brackets hold non-standard residues; d marks the D form. Peptide text beside a SMILES is read from it.

Assays:
[1] = solubility and stability of IF7 (dosage form observations); type: physicochemical
Protocol: That is, IF7 peptide is protease sensitive and is susceptible to degradation. Indeed, in an experiment including intravenous administration of A488-IF7 to healthy mouse, the fluorescence signal of peripheral blood almost disappeared in about 1 hour (FIG. 5). […] In addition, IF7 has high hydrophobicity and causes difficulty in dosage form such as the need for addition of a surfactant after dissolution in DMSO, in an attempt to avoid precipitation when a compound bound with an anticancer drug is intravenously administered.

[2] = molecular target: T1, Anxa1 (Homo sapiens, UniProt P04083); assay: intermolecular interaction with Anxa1 measured by the QCM method; type: binding
T1 construct: human recombinant Anxa1 protein consisting of 346 amino acid residues; purchased ATGen Corporation (Seongnam-si, South Korea)
T1 sequence (P04083 1-346): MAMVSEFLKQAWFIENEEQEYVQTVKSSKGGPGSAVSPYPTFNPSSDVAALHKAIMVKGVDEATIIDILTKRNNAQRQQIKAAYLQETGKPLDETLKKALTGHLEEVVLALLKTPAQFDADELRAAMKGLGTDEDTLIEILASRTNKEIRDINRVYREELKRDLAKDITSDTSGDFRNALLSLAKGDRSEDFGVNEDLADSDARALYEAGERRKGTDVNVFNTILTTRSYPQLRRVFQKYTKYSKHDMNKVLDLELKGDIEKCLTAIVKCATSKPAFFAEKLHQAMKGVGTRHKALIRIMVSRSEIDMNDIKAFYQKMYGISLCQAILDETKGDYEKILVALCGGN
Protocol: As for the peptides of the sequences of LRFPTVL (SEQ ID NO: 13), SPTSLLF (SEQ ID NO: 14), MPTLTFR (SEQ ID NO: 15) and LLSWPSA (SEQ ID NO: 17) with high emergence frequency besides the TIT7 sequence (SEQ ID NO: 12) described in Example 1, similar to the dTIT7 peptide, peptides (dLRF7, dSPT7, dMPT7 and dLLS7 peptides) composed of D-form amino acids were synthesized and the intermolecular interaction with Anxa1 was measured for each of them by the following method.
The sensor chip was washed twice with piranha solution for 5 min and then immersed overnight in a solution of 0.9 mM hydroxy-EG3-undecanethiol (Dojindo) and 0.1 mM amino-EG6-undecanethiol (Dojindo). After washing with water, the chip was treated with 1 mM GMBS (Dojindo) and incubated at room temperature for 1 hr. After washing away the remaining GMBS, 1 mM peptide solution was added onto the chip and the chip was incubated for 30 min. The peptide-bound sensor chip was placed in a QCM apparatus (Single-Q, ASONE), and 0.5 ml of PBS was added to the well. Various doses of Anxa1 were injected into the reaction chamber and the binding affinity (kd value) for each peptide was determined.

[3] = QCM, peptide-bound sensor chip, various doses of Anxa1, read-out: kd value

SMILES	Kd [2, 3] [nM]	also measured
CC[C@H](C)[C@H](N)C(=O)N[C@@H](Cc1ccccc1)C(=O)N[C@@H](CC(C)C)C(=O)N[C@@H](CC(C)C)C(=O)N[C@@H](Cc1c[nH]c2ccccc12)C(=O)N[C@@H](CCC(N)=O)C(=O)N[C@@H](CCCNC(=N)N)C(=O)O [IF7, IFLLWQR] (H-IFLLWQR-OH; N-terminus and C-terminus assumed)	–	solubility [1]: poor solubility; stability ([1]; protease sensitivity): low stability
CC(C)C[C@@H](N)C(=O)N[C@H](CC(C)C)C(=O)N[C@H](CO)C(=O)N[C@H](Cc1c[nH]c2ccccc12)C(=O)N1CCC[C@@H]1C(=O)N[C@H](CO)C(=O)N[C@H](C)C(=O)O [dLLS7, L[D] L[D] S[D] W[D] P[D] S[D] A[D]] (H-[dL][dL][dS][dW][dP][dS][dA]-OH; N-terminus and C-terminus assumed)	54.2	–
CC(C)C[C@@H](N)C(=O)N[C@H](CCCNC(=N)N)C(=O)N[C@H](Cc1ccccc1)C(=O)N1CCC[C@@H]1C(=O)N[C@@H](C(=O)N[C@@H](C(=O)N[C@H](CC(C)C)C(=O)O)C(C)C)[C@H](C)O [dLRF7, L[D] R[D] F[D] P[D] T[D] V[D] L[D]] (H-[dL][dR][dF][dP][dT][dV][dL]-OH; N-terminus and C-terminus assumed)	31.2	–
CSCC[C@@H](N)C(=O)N1CCC[C@@H]1C(=O)N[C@@H](C(=O)N[C@H](CC(C)C)C(=O)N[C@@H](C(=O)N[C@H](Cc1ccccc1)C(=O)N[C@H](CCCNC(=N)N)C(=O)O)[C@H](C)O)[C@H](C)O [dMPT7, M[D] P[D] T[D] L[D] T[D] F[D] R[D]] (H-[dM][dP][dT][dL][dT][dF][dR]-OH; N-terminus and C-terminus assumed)	298	–
CC(C)C[C@@H](NC(=O)[C@@H](CC(C)C)NC(=O)[C@@H](CO)NC(=O)[C@H](NC(=O)[C@H]1CCCN1C(=O)[C@H](N)CO)[C@H](C)O)C(=O)N[C@H](Cc1ccccc1)C(=O)O [dSPT7, S[D] P[D] T[D] S[D] L[D] L[D] F[D]] (H-[dS][dP][dT][dS][dL][dL][dF]-OH; N-terminus and C-terminus assumed)	90.3	–
CC[C@@H](C)[C@@H](NC(=O)[C@H](N)[C@H](C)O)C(=O)N[C@@H](C(=O)N[C@H](Cc1c[nH]c2ccccc12)C(=O)N1CCC[C@@H]1C(=O)N[C@@H](C(=O)N[C@H](CCSC)C(=O)O)[C@H](C)O)[C@H](C)O [dTIT7, T[D] I[D] T[D] W[D] P[D] T[D] M[D]]	–	Kd ([2]; QCM method, dTIT7 and Anxa1, read-out: dissociation constant (Kd value)): 45.7 nM
